Reference: ChEMBL document CHEMBL1131034, “Synthesis and pharmacological characterization of novel 6-fluorochroman derivatives as potential 5-HT1A receptor antagonists” (J Med Chem, 1998)

Columns and labels:
[1] = target: T1, Adrenergic receptor alpha-1 (Rattus norvegicus, UniProt P15823+P23944+P43140); test: Binding affinity against alpha-1 adrenergic receptor on rat cortex using [3H]-prazosin as radioligand.; type: tissue-based, Brain
T1 sequence (P15823 whole entry): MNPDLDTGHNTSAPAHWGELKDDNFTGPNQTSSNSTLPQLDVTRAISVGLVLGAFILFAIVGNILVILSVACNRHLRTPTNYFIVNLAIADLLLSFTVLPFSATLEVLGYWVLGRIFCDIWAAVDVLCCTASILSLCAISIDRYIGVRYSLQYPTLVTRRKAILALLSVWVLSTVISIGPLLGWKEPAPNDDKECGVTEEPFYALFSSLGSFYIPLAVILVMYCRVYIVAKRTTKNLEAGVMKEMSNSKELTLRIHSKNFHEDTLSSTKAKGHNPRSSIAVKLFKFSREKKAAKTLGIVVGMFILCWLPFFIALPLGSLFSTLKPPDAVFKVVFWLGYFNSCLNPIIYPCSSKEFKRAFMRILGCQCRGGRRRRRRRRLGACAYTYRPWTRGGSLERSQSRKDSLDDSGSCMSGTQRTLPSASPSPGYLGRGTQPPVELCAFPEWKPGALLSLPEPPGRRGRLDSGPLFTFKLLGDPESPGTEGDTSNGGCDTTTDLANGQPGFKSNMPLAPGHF
T1 sequence (P23944 whole entry): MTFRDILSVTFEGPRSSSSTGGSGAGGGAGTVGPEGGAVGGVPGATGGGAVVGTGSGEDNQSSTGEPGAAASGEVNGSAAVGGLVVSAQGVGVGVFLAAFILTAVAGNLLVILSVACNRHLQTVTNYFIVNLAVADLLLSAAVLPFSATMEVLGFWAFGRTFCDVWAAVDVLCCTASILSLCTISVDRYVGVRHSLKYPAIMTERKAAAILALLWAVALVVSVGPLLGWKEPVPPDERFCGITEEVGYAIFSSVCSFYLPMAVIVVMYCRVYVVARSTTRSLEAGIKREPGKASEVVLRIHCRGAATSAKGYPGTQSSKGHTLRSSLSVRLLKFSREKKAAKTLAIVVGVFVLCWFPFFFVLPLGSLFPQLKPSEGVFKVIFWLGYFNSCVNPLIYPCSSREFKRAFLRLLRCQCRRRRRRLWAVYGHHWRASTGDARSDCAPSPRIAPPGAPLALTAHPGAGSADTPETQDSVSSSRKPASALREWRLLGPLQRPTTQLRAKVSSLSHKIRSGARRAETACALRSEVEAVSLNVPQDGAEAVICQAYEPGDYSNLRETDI
T1 sequence (P43140 whole entry): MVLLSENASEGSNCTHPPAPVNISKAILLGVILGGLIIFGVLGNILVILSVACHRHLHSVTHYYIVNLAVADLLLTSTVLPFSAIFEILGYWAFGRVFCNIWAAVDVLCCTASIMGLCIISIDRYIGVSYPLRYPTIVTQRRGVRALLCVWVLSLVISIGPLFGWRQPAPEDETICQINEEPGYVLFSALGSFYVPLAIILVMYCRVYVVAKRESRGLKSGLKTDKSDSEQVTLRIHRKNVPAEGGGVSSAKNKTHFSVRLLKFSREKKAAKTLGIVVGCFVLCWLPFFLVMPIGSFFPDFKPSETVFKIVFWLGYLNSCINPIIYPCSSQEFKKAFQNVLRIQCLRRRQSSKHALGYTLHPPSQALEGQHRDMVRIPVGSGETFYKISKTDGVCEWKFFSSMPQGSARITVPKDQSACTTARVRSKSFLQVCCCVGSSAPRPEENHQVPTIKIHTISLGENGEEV

[2] = target: Serotonin 1a (5-HT1a) receptor/Adrenergic receptor alpha-1 (Rattus norvegicus) (UniProt P15823+P23944+P43140+P19327); test: Selectivity for 5-HT1A receptor of rat hippocampus and alpha-1 adrenergic receptor of rat cortex.; type: tissue-based
[3] = Binding affinity (Ki) ratio of D2 receptor of rat striatum and 5-HT1A receptor of rat hippocampus.; type: tissue-based
[4] = target: T2, 5-hydroxytryptamine receptor 1A (Homo sapiens) (UniProt P08908); test: Antagonist activity against CHO cells expressing the human 5-hydroxytryptamine 1A receptor in a forskolin stimulated adenylate cyclase (FSC) assay.; type: functional, cell-based
T2 sequence (whole entry): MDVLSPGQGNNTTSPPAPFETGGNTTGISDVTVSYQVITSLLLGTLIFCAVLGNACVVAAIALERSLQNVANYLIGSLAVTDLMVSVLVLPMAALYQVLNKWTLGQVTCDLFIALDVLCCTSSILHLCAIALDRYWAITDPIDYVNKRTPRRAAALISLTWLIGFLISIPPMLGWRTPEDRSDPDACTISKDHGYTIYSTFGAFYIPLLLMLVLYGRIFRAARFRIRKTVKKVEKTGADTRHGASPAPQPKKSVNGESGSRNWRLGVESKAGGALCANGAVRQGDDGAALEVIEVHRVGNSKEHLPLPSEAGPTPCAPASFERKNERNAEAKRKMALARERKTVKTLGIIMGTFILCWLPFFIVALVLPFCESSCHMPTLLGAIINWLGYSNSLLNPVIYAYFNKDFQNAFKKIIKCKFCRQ

[5] = target: T3, 5-hydroxytryptamine receptor 1A (Rattus norvegicus, UniProt P19327); test: Binding affinity against 5-hydroxytryptamine 1A receptor on rat hippocampus using [3H]8-OH-DPAT as radioligand.; type: tissue-based
T3 sequence (P19327 whole entry): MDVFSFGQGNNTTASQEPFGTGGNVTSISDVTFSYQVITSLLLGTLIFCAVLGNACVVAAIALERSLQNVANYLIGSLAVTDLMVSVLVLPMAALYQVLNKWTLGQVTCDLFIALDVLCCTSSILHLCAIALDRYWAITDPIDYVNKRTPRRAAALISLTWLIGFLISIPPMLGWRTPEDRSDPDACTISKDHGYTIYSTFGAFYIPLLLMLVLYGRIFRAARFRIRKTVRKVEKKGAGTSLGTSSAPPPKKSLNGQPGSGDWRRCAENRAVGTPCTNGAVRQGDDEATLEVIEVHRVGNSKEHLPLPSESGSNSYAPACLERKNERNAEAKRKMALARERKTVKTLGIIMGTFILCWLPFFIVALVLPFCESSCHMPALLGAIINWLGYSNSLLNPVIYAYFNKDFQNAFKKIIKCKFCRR

[6] = target: D(2) dopamine receptor (Rattus norvegicus, UniProt P61169); test: Binding affinity against dopamine receptor D2 on rat striatum using [3H]spiperone as radioligand.; type: tissue-based
Chain of D(2) dopamine receptor (P61169 whole entry): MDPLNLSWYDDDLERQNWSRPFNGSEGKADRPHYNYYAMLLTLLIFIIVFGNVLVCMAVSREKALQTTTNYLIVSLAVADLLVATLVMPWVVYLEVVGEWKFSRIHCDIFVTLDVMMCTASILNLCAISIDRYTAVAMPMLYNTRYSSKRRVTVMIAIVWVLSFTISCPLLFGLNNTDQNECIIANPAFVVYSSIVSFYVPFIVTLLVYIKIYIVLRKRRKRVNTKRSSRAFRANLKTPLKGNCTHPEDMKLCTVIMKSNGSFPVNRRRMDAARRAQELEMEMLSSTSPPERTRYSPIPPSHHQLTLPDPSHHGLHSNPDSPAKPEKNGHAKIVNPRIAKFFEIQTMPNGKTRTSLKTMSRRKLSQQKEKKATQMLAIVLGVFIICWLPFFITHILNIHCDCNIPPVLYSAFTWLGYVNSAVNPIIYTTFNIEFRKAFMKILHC

SMILES	Ki [1]	Selectivity [2]	Ratio [3]	FSC recovery [4]	Ki [5]	Ki [6]
COc1ccc(CCCCNCCOc2cc(F)cc3c2OC(C)CC3)cc1 (stereo unspecified)	0.00407 µM	15	1.2	53%	0.00027 µM	0.000312 µM
COc1ccc(CCNCCOc2cc(F)cc3c2OC(C)CC3)cc1 (stereo unspecified)	0.00273 µM	15	43	12%	0.000188 µM	0.00813 µM
COc1ccc(CCCCNCCOc2cc(F)cc3c2OCCC3OC)cc1 (stereo unspecified)	0.175 µM	9.6	0.5	111%	0.0183 µM	0.00907 µM
CCCN(CCCCc1ccc2c(c1)OCO2)CCOc1cc(F)cc2c1OCCC2=O	0.734 µM	11	22	6%	0.069 µM	1.54 µM
COc1ccc(CCCCNCCOc2cc(F)cc3c2OCCC3O)cc1 (stereo in doubt; (-)-34) [listing 1 of 2 here]		19	13	111%		
COc1ccccc1CCCCNCCOc1cc(F)cc2c1OCCC2=O	0.0756 µM	3.2	0.99	44%	0.024 µM	0.0237 µM
COc1ccc(CCCCNCCOc2cc(F)cc3c2OCCC3=O)c2ccccc12	0.198 µM	0.29	0.23	-15%	0.68 µM	0.153 µM
COc1cccc(CCCCNCCOc2cc(F)cc3c2OCCC3=O)c1	0.249 µM	5.7	2.6	3%	0.0434 µM	0.111 µM
CCOc1ccc(CCCCNCCOc2cc(F)cc3c2OCCC3=O)cc1	0.663 µM	37	3.1	52%	0.018 µM	0.0551 µM
CN(C)c1ccc(CCCCNCCOc2cc(F)cc3c2OCCC3=O)cc1	0.574 µM	20	1.2	37%	0.0283 µM	0.0346 µM
COc1ccc(CCCNCCOc2cc(F)cc3c2OC(C)CC3)cc1 (stereo unspecified)	0.0199 µM	2.1	0.52	40%	0.00953 µM	0.00498 µM
COc1ccc(CCCCNCCOc2cc(F)cc3c2OCCC3O)cc1 (single isomer, unassigned; (+)) [listing 1 of 2 here]	0.0733 µM				0.0021 µM	0.000482 µM
COc1ccc(CCCCNCCOc2cc(F)cc3c2OCCC3O)cc1 (single isomer, unassigned; (+)) [listing 2 of 2 here]		35	0.23	109%		
O=C1CCOc2c(OCCNCCCCc3ccccc3)cc(F)cc21	0.0915 µM	2.2	1.1	16%	0.0418 µM	0.0439 µM
COc1ccc(CCCCNCCOc2cc(F)cc3c2OC(C)(C)CC3)cc1	0.00357 µM	8.2	0.34	44%	0.000435 µM	0.000149 µM
COc1ccc(CCNCCOc2cc(F)cc3c2OCCC3O)cc1 (stereo unspecified)	0.0135 µM	5.8	1.3	68%	0.00234 µM	0.00299 µM
COc1ccc(CCNCCOc2cc(F)cc3c2OCCC3=O)cc1	0.317 µM	78	9.4	9%	0.00404 µM	0.038 µM
COc1ccc(CCCCN(C)CCOc2cc(F)cc3c2OCCC3=O)cc1	1.35 µM	26		10%	0.0527 µM	
CCCOc1ccc(CCCCNCCOc2cc(F)cc3c2OCCC3=O)cc1	0.856 µM	18		33%	0.0488 µM	
O=C1CCOc2c(OCCNCCCCc3ccc([N+](=O)[O-])cc3)cc(F)cc21	0.258 µM	13		3%	0.0193 µM	
COc1ccc(CCCCNCCOc2cc(F)cc3c2OCCC3O)cc1 (stereo in doubt; 34)		15	1	108%		
O=C1CCOc2c(OCCNCCCCc3ccc(Cl)cc3)cc(F)cc21	0.0989 µM	5.2	1.7	30%	0.019 µM	0.0323 µM
COc1ccc(CCCCNCCOc2cc(F)cc3c2OCCC3O)cc1 (stereo in doubt; (-)-34) [listing 2 of 2 here]	0.00586 µM				0.00031 µM	0.00411 µM
CSc1ccc(CCCCNCCOc2cc(F)cc3c2OCCC3=O)cc1	0.315 µM	17	2.1	49%	0.0184 µM	0.0388 µM
COc1ccc(CCCCNCCOc2cc(F)cc3c2OCC/C3=N/O)cc1	0.207 µM	7.5	0.42	83%	0.0277 µM	0.0117 µM
COc1ccc(CCCCCNCCOc2cc(F)cc3c2OC(C)CC3)cc1 (stereo unspecified)	0.0191 µM	2.6	0.41	59%	0.00733 µM	0.00302 µM
N#Cc1ccc(CCCCNCCOc2cc(F)cc3c2OCCC3=O)cc1	0.355 µM	32	6.4	17%	0.011 µM	0.0704 µM
COc1ccc(CCCCNCCOc2cc(F)cc3c2OCCC3=O)c(C)c1C	0.152 µM	2		17%	0.077 µM	
COc1ccc(CCCCCCNCCOc2cc(F)cc3c2OC(C)CC3)cc1 (stereo unspecified)	0.0308 µM	3.4	0.26	76%	0.00899 µM	0.00231 µM
